Test results as given in article PMC12123601, “Light-Induced, Lysine-Targeting Irreversible Covalent Inhibition of the Human Oxygen Sensing Hydroxylase Factor Inhibiting HIF (FIH)” (Journal of the American Chemical Society, 2025).

What was measured:
[1] = biological target: FIH (Homo sapiens, UniProt Q9NWT6); assay: O-phenylenediamine (OPD) 2OG derivatization turnover assay (remaining 2OG in FIH hydroxylation system); format: biochemical; set-up: Concentration of remaining 2OG: unit: µM
Protocol: To explore whether the covalent inhibitor can effectively and sustainably prevent the hydroxylation process catalyzed by FIH, the inhibitory activities against FIH were evaluated using the fluorescent O-phenylenediamine (OPD) 2OG derivatization turnover assay (Figure S9).
Figure S9. Schematic of the O-phenylenediamine (OPD) fluorescent derivative assay6. The assay monitors depletion of 2OG.
(1 picture or pasted object on this page, not shown here) […]
pET28a vectors encoding for full-length FIH with an N-terminal His6 tag or for FIH (K106A) with an N-terminal His6 tag were purchased from Nanjing Zoonbio Biotechnology. Both the FIHWT and FIHK106A protein were expressed from the respective plasmid in Escherichia coli BL21 at 20 °C for 16 h. E. coli cells were lysed and the lysate were clarified by centrifugation. His6-tagged FIHWT or FIHK106A was purified on a HisTrap affinity column (GE Healthcare) by elution with an imidazole gradient. The final purified proteins were stored in PBS buffer. […]
Ki = I50 / [1 + ([L]50 + [P]0)/Kd] […]
3.2 O-Phenylenediamine (OPD) fluorescent derivative assay
Assays were carried out by mixing 1 mM DTT, 0.6 mg/mL of catalase, 200 μM 2-OG, 50 mM Hepes, 200 μM HIF-1α (788-807), and inhibitors at pH 7.0 to a final volume of 44 μL and incubated at 37 °C for 5 min. At the same time, FIH enzyme and iron (prepared as 200 mM stock in 20 mM HCl and diluted with water) were mixed at room temperature for 3 min. […] The reaction was stopped by the addition of 100 μL of 0.5 M HCl. After adding 50 μL of 10 mg/mL OPD in 0.5 M HCl and heating at 95 °C for 10 min, the derivatization was achieved. Then, 50 μL of the mixture centrifugated for 5 min was made basic by adding 30 μL of 1.25 M NaOH, and then fluorescence was detected by SPARK Multi-Mode Microplate Reader (Tecan). […]
Crystals were cryo -protected using mother liquor supplemented with 25%v/v glycerol before manual loop cryo -cooling in liquid N2.
Data for ligand -bound protein complexes were from single crystals at 100 K using Diamond Light Source (UK) beamlines. The FIH crystal structures were determined by molecular replacement (MR) using the AutoMR (PHASER) subroutine in PHENIX (version 1.18.2) based on the PDB ID: 1H2K crystal structure .

[2] = test system: EGLN3 mRNA level in Hep3B cells; assay: qRT-PCR of FIH-dependent HIF target gene EGLN3 in Hep3B cells; format: cell-based
Protocol: 5 […] sustainably engages with FIH and regulates the expression of FIH-dependent HIF target gene EGLN3 in Hep3B cells. (A) The CETSA assay was carried out with Hep3B cells grown in the presence of NBA-ZG-2291 (50 μM) for 12–48 h after 30 min of light activation (365 nm, 16 W). The intensity of the bands for grayscale analysis was referenced to the starting temperature (37 °C). α-Actinin was the sample loading control. n = 2; mean ± SD. […] (E) Correlation heatmap of the NBA-ZG-2291-treated group and the siFIH group by RNA-sequencing analysis. […] The relative fold change with respect to DMSO treated sample is shown (with normalization to HPRT gene levels). Mean ± SEM; n = 3. (G) TG level of NBA-ZG-2291-treated 3T3-L1-derived adipocytes. Mean ± SEM; n = 3. (H) Representative Oil Red O-stained images of the control, ZG-2291-treated, and NBA-ZG-2291-treated 3T3-L1-derived adipocytes. Scale Bar, 30 μm. P values were analyzed by two-way ANOVA comparing with the vehicle/control group (*, P < 0.05; **, P < 0.01; ***, P < 0.001, ****, P < 0.0001). See Methods (Quantitative PCR Analysis of Gene Expression) for assay details. TEXT PRINTED IN THE PICTURE: (A) no label printed: FIH: ΔTm (°C): 8.87 (Incubation time: 12 h); FIH: ΔTm (°C): 9.28 (Incubation time: 24 h); FIH: ΔTm (°C): 8.86 (Incubation time: 48 h); α-actinin: ΔTm (°C): 0.30 (Incubation time: 12 h); α-actinin: ΔTm (°C): -0.03 (Incubation time: 24 h); α-actinin: ΔTm (°C): -0.45 (Incubation time: 48 h) DOUBTS OF THE COPYIST ABOUT THIS PICTURE: Panel A: the picture prints no substance label with the ΔTm tables, so the label is left empty
The Egl-9 family hypoxia-inducible factor 3 gene (EGLN3, PHD3) is a HIF target gene, expression of which is negatively regulated by FIH catalysis, , potentially in a context-dependent manner. We therefore investigated the effect of the light-induced covalent inhibitor NBA-ZG-2291 on EGLN3 expression levels in Hep3B cells using ZG-2291 as a positive inhibition control. […] At a concentration of 10 μM, NBA-ZG-2291 increased EGLN3 expression by ∼2.5-fold with irradiation.
We also compared the time-dependent regulation of NBA-ZG-2291 on the HIF pathway with that of ZG-2291. […] This may result from the limited action time of the reversible inhibitor, perhaps due to its metabolism. The overall results provide strong evidence that the light-induced, lysine-targeting irreversible covalent inhibitor NBA-ZG-2291 can effectively and sustainably engage FIH, leading to the upregulation of FIH-dependent HIF target gene expression.

Chain of FIH (Q9NWT6 whole entry): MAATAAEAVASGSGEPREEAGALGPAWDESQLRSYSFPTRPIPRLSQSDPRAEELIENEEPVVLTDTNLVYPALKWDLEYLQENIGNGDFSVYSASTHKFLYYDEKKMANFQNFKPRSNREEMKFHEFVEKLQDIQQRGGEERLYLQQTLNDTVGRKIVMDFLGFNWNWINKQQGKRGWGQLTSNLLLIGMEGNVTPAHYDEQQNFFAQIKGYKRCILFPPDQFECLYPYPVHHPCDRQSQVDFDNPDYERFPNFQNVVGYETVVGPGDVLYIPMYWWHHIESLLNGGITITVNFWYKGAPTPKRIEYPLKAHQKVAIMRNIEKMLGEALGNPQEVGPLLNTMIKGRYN

O=C(O)CNC(=O)c1ncc(-c2cc(-c3cccc(Cl)c3)no2)cc1O [ZG-2291, reference compound]
Concentration of remaining 2OG ([1]; inhibitor 0.14 μM, incubation 0 min, 200 μM 2-OG at start): 200.0
Concentration of remaining 2OG ([1]; inhibitor 0.14 μM, incubation 15 min): 182.9
Concentration of remaining 2OG ([1]; inhibitor 0.14 μM, incubation 30 min): 173.3
Concentration of remaining 2OG ([1]; inhibitor 0.14 μM, incubation 1 h): 163.0
Concentration of remaining 2OG ([1]; inhibitor 0.14 μM, incubation 4 h): 140.5
Concentration of remaining 2OG ([1]; inhibitor 0.41 μM, incubation 0 min, 200 μM 2-OG at start): 200.0
Concentration of remaining 2OG ([1]; inhibitor 0.41 μM, incubation 15 min): 184.2
Concentration of remaining 2OG ([1]; inhibitor 0.41 μM, incubation 30 min): 176.4
Concentration of remaining 2OG ([1]; inhibitor 0.41 μM, incubation 1 h): 162.3
Concentration of remaining 2OG ([1]; inhibitor 0.41 μM, incubation 4 h): 153.7
Concentration of remaining 2OG ([1]; inhibitor 1.23 μM, incubation 0 min, 200 μM 2-OG at start): 200.0
Concentration of remaining 2OG ([1]; inhibitor 1.23 μM, incubation 15 min): 190.8
Concentration of remaining 2OG ([1]; inhibitor 1.23 μM, incubation 30 min): 184.4
Concentration of remaining 2OG ([1]; inhibitor 1.23 μM, incubation 1 h): 172.8
Concentration of remaining 2OG ([1]; inhibitor 1.23 μM, incubation 4 h): 159.4
Concentration of remaining 2OG ([1]; inhibitor 3.70 μM, incubation 0 min, 200 μM 2-OG at start): 200.0
Concentration of remaining 2OG ([1]; inhibitor 3.70 μM, incubation 15 min): 192.8
Concentration of remaining 2OG ([1]; inhibitor 3.70 μM, incubation 30 min): 190.8
Concentration of remaining 2OG ([1]; inhibitor 3.70 μM, incubation 1 h): 181.0
Concentration of remaining 2OG ([1]; inhibitor 3.70 μM, incubation 4 h): 167.9
Concentration of remaining 2OG ([1]; inhibitor 11.1 μM, incubation 0 min, 200 μM 2-OG at start): 200.0
Concentration of remaining 2OG ([1]; inhibitor 11.1 μM, incubation 15 min): 195.1
Concentration of remaining 2OG ([1]; inhibitor 11.1 μM, incubation 30 min): 194.6
Concentration of remaining 2OG ([1]; inhibitor 11.1 μM, incubation 1 h): 184.1
Concentration of remaining 2OG ([1]; inhibitor 11.1 μM, incubation 4 h): 175.9
Concentration of remaining 2OG ([1]; inhibitor 33.3 μM, incubation 0 min, 200 μM 2-OG at start): 200.0
Concentration of remaining 2OG ([1]; inhibitor 33.3 μM, incubation 15 min): 195.6
Concentration of remaining 2OG ([1]; inhibitor 33.3 μM, incubation 30 min): 195.3
Concentration of remaining 2OG ([1]; inhibitor 33.3 μM, incubation 1 h): 189.4
Concentration of remaining 2OG ([1]; inhibitor 33.3 μM, incubation 4 h): 181.4
Concentration of remaining 2OG ([1]; inhibitor 100 μM, incubation 0 min, 200 μM 2-OG at start): 200.0
Concentration of remaining 2OG ([1]; inhibitor 100 μM, incubation 15 min): 199.4
Concentration of remaining 2OG ([1]; inhibitor 100 μM, incubation 30 min): 197.3
Concentration of remaining 2OG ([1]; inhibitor 100 μM, incubation 1 h): 193.2
Concentration of remaining 2OG ([1]; inhibitor 100 μM, incubation 4 h): 186.6
Concentration of remaining 2OG ([1]; inhibitor 300 μM, incubation 0 min, 200 μM 2-OG at start): 200.0
Concentration of remaining 2OG ([1]; inhibitor 300 μM, incubation 15 min): 200.0
Concentration of remaining 2OG ([1]; inhibitor 300 μM, incubation 30 min): 199.1
Concentration of remaining 2OG ([1]; inhibitor 300 μM, incubation 1 h): 196.6
Concentration of remaining 2OG ([1]; inhibitor 300 μM, incubation 4 h): 193.3
Effect of irradiation on EGLN3 expression [2]: not affected by irradiation
Upregulation of EGLN3 mRNA level ([2]; 20 μM, absence of irradiation): ~2.2 fold
EGLN3 mRNA levels versus DMSO ([2]; after 16 h treatment): no significant difference compared to the negative control
